Test results as given in US11344534B2, “Cholinergic agonism for the treatment of pancreatic cancer” (priority 2017, dated 2022).
“Also recorded” adds a separate entry of the source.

What was measured:
KPC mice = KPC mice with established PDAC treated with gemcitabine with or without bethanechol; assay type: in vivo, mouse; conditions: KPC mice
Source text: Next, the role of cholinergic signaling in advanced pancreatic cancer was investigated using the genetically engineered KPC (K-Ras^+/LSL-G12D;p53^+/R172H;Pdx-1-Cre) mouse model, which develops ductal adenocarcinoma by 17-19 weeks (Olive et al., 2009, Hingorani et al., 2005).
K-Ras^+/LSL-G12D, p53^+/R172H, and Pdx-1-Cre mice were provided by Dr. Kenneth Olive (Columbia University). M1RKO mice were purchased from the Jackson Laboratory. KC mice and KPC mice were crossed with M1RKO mice. For several experiments, KC mice received pyloroplasty with or without vagotomy at 8 weeks and KC+VxPP mice were treated with or without bethanechol (400 μg/ml) after surgery immediately. They were sacrificed at 20 weeks. In addition, KPC mice were treated with gemcitabine biweekly and with or without bethanechol when the tumor size of 3-5 mm detected using ultrasound. They were sacrificed when the mice were moribund. For liver metastatic experiments, WT type C57/B6 mice received spleen injection and hemi-splenectomy. […] They were sacrificed when the mice were moribund.
Next, the role of cholinergic signaling in established PDAC was investigated using the KPC mouse model, which develops PDAC at a median age of 17-19 weeks^2, 29. KPC mice with pancreatic tumors that measured 3-5 mm in diameter on ultrasound were randomized to treatment with gemcitabine (GEM) alone, or GEM+bethanechol (FIG. 8I).
LSL-Kras^+/LSL-G12D, LSL-Trp53^+/R172H, and Pdx1-Cre mice were bred by Dr. Kenneth P. Olive and co-workers. Chrm1KO mice (C57BL/6-Chrm1tm1 Stl/J, (M1RKO) mice^1 were purchased from the Jackson Laboratory. KC mice and KPC mice were crossed with M1RKO mice. In the vagotomy experiments, KC mice received pyloroplasty with or without vagotomy at 8 weeks, and some KC+VxPP mice were treated with bethanechol ([…] in drinking water) immediately after surgery and then sacrificed at 20 weeks. KPC mice in treatment studies were palpated weekly for tumors in the pancreas. Once a tumor was suspected, KPC mice were screened by VEVO 2100—Ultrasound Imaging System (FUJIFILM VisualSonics) for pancreatic cancer. KPC mice were treated with gemcitabine, given by i.p. injection 100 mg/kg biweekly, with or without bethanechol, when a tumor size of 3-5 mm was detected using ultrasound. Mice were sacrificed when the mice were moribund. NOD/SCID mice were implanted with Panc1 cells subcutaneously and sacrificed at 30 days after implantation. For liver metastatic experiments, WT type C57/B6 mice received a splenic injection of labeled Panc02 cells, followed by hemi-splenectomy. The mice were then divided into three groups. […] Mice were then sacrificed when moribund. At necropsy, hepatic metastases that could clearly be identified as tumor nodules on gross inspection were separated. All animal studies and procedures were approved by the IACUC committee at Columbia University. All mice were bred under specific pathogen free conditions. Comparisons were made with age- and sex-matched control animals.
CD44, p-EGFR, p-PI3K, p-ERK, and Ki67 positive cells were quantified in at least five high power fields from at least 3 mice per group. Total cells per field were counted via morphometric analysis using ImageJ and the ratio of positive cells to total cell number calculated.

[1] = tested on: Kras^+/LSL-G12D mutant spheres; assay: 3D Matrigel sphere culture of Kras mutant (Ad-Cre) pancreatic acinar cells; assay type: cell-based, mouse; conditions: for number of spheres / size of spheres: day 5, pilocarpine 1 mM, scopolamine 10 μM, McN-34A 50 μM, pirenzepine 50 μM, vs controls; for sphere formation and growth of Kras mutant spheres: oncogenic K-Ras allele activated by adeno-Cre virus
Method: Cholinergic stimulation could in theory promote cancer indirectly through effects on stromal cells, or directly through effects on pancreatic epithelial cells. To determine whether cholinergic stimulation promoted tumor development in part through muscarinic receptors on cancer cells, the sphere forming capacity of K-Ras^+/LSL-G12D mutant pancreatic acinar cells was assessed in a 3D Matrigel culture system, with or without muscarinic stimulation. K-Ras^+/LSL-G12D mutant spheres were generated from K-Ras^+/LSL-G12D pancreatic acinar cells by treatment with adenoviral delivered Cre (Ad-Cre).
3D cultures were performed as described previously (Wescott et al., 2009). Organoids were cultured for 5 days before analysis. Adenoviral delivered Cre (Ad-Cre) was added to the cultures and medium was changed after 12 hours. […] Sphere size and […] were analyzed using ImageJ software.
To determine whether cholinergic stimulation suppresses tumor development in part through specific muscarinic receptors on cancer cells, the sphere forming capacity of Kras^+/LSL-G12D pancreatic acinar cells in a 3D Matrigel culture system in the absence and presence of muscarinic agonists and antagonists was assessed. Kras^+/LSL-G12D mutant spheres were generated from Kras^+/LSL-G12D mice by delivery of an adenoviral Cre (Ad-Cre).
3D cultures were performed as described previously^18. Organoids were cultured for 5 days before analysis. Adenoviral delivered Cre (Ad-Cre) was added to the cultures and medium was changed after 12 hours. […] Sphere size and number were analyzed using ImageJ software.

human Panc1 cells = assay: Western blot of EGFR/MAPK and PI3K/AKT signaling, Panc1; assay type: cell-based; conditions: for phosphorylation of EGFR, BRAF, ERK1/2, PI3K and AKT kinases (western blot): 72 hours; for ratios of p-EGFR/EGFR, p-BRAF/BRAF, p-ERK/ERK, p-PI3K/PI3K and p-AKT/AKT (densitometry): single agent alone
Method: (§1) To analyze EGFR and the MAPK and PI3K-Akt pathway in human and murine pancreatic cancer cell lines, cells were grown in 12-well plate to around ˜70% confluent, changed the 0.5% FBS medium, added the drugs respectively and incubated them for further 72 hrs incubation in a typical CO2 incubator (˜20% O2). After removing the medium, cells were washed twice with PBS, and protein extraction was performed on ice using RIPA buffer with protease inhibitor (Complete) (Roche) cocktail and phosphatase inhibitor (phosSTOP) (Roche). Protein samples were subsequently separated in 10% Bis-Tris Gel NuPAGE® electrophoresis using MES SDS Running Buffer (Invitrogen, CA, USA). After transfer to nitrocellulose, membranes were blocked with 5% BSA, and samples were probed with the following primary antibodies: p-EGFR (Cell Signaling), EGFR (Cell Signaling), p-BRAF (Cell Signaling), BRAF (Cell Signaling), p-ERK1/2 (phosphorylated p44/42 MAPK) (Thr202/Tyr204) (Cell Signaling), ERK1/2 (p44/42 MAPK) (Thr202/Tyr204) (Cell Signaling), p-PI3K (Cell Signaling), PI3K (Cell Signaling), p-Akt (Cell Signaling), Akt (Cell Signaling), and β-actin (Cell Signaling) followed by horseradish peroxidase-coupled secondary antibody. Immunoreactive bands were visualized using 5-bromo-4-chloro-3-indolyl phosphate/nitro blue tetrazolium and bands were quantified with ImageJ.
(§2) To analyze EGFR, MAPK and PI3K-AKT pathways in human and murine pancreatic cancer cell lines, cells were grown in 12-well culture plates to ˜70% confluency. The medium was then changed to 0.5% FBS medium, the respective drugs were added, and they were incubated for an additional 72 hours in a CO2 incubator (˜5% CO2). After removing the medium, cells were washed twice with PBS, and protein extraction was performed on ice using RIPA buffer with protease inhibitor (Complete, Roche) cocktail and a phosphatase inhibitor (phosSTOP, Roche). Protein samples were subsequently separated by 10% Bis-Tris Gel NuPAGE® electrophoresis using MES SDS Running Buffer (Invitrogen, CA, USA). After transfer to nitrocellulose, membranes were blocked with 5% BSA, and samples were probed with the following primary antibodies: p-EGFR (Cell Signaling), EGFR (Cell Signaling), p-BRAF (Cell Signaling), BRAF (Cell Signaling), p-ERK1/2 (phosphorylated p44/42 MAPK) (Thr202/Tyr204) (Cell Signaling), ERK1/2 (p44/42 MAPK) (Thr202/Tyr204) (Cell Signaling), p-PI3K (Cell Signaling), PI3K (Cell Signaling), p-AKT (Cell Signaling), AKT (Cell Signaling), and β-actin (Cell Signaling) followed by horseradish peroxidase-coupled secondary antibody. Immunoreactive bands were visualized using 5-bromo-4-chloro-3-indolyl phosphate/nitro blue tetrazolium and bands were quantified with ImageJ.

murine K8282 cells = assay: Western blot of EGFR/MAPK and PI3K/AKT signaling, K8282; assay type: cell-based, mouse; conditions: for phosphorylation of EGFR, BRAF, ERK1/2, PI3K and AKT kinases (western blot): 72 hours; for ratios of p-EGFR/EGFR, p-BRAF/BRAF, p-ERK/ERK, p-PI3K/PI3K and p-AKT/AKT (densitometry): single agent alone
Method: as §1, §2

[2] = tested on: murine PDAC cell lines (Panc02, K8282); assay: MTT assay, murine PDAC cell lines; assay type: cell-based, mouse; conditions: for proliferation (MTT assay): 72 hours, 0.5% FBS medium
Method: (§3) Cell proliferation in each cell line was assessed with a 3-(4,5-dimethylthiazol-2yl)-2,5-diphenyltetrazolium bromide (MTT) assay kit (Sigma) in accordance with the manufacturer's instructions. 3×10^3 cells were grown in 96-well plate to around ˜70% confluent, changed the 0.5% FBS medium, added the drugs respectively and incubated them for further 72 hrs incubation in a typical CO2 incubator (˜20% O2). Treated cells were rinsed twice with PBS, incubated in 10 ll MTT solution for 4 hr at 37° C., and 100 uL DMSO was added to each well. The absorbance of each well was measured at 570 nm using Tilter-Tech 96-well multiscanner (Becton Dickinson, Heidelberg, Germany). The relative number of viable cells compared with the number of cells without drug treatment was expressed as percent cell viability using the following formula:
(§4) Cell proliferation in each cell line was assessed with a 3-(4,5-dimethylthiazol-2yl)-2,5-diphenyltetrazolium bromide (MTT) assay kit (Sigma) in accordance with the manufacturer's instructions. 3×10^3 cells were grown in 96-well plate to ˜70% confluency, the media was changed to 0.5% FBS medium, the respective drugs were added, and they were incubated for an additional 72 hours in a CO2 incubator (˜5% CO2). Treated cells were rinsed twice with PBS, incubated in 10 ul MTT (5 mg/ml PBS) solution for 4 hours at 37° C., and 100 uL DMSO was then added to each well. The absorbance of each well was measured at 570 nm using a Tilter-Tech 96-well multiscanner (Becton Dickinson, Heidelberg, Germany). The relative number of viable cells compared with the number of cells without drug treatment was expressed as percent cell viability using the following formula: cell viability (%)=A570 of treated cells/A570 of untreated cells.

[3] = tested on: human PDAC cell lines (MiaPaca2, Panc1); assay: MTT assay, human PDAC cell lines; assay type: cell-based; conditions: for proliferation (MTT assay): 72 hours, 0.5% FBS medium
Method: as §3, §4

[4] = tested on: Organoid cultures derived from LSL-K-Ras^G12D pancreata not treated by an Adeno-Cre virus; assay type: cell-based; conditions: no Adeno-Cre virus (Kras not activated)
CHRM1 [5] = assay: qRT-PCR of muscarinic receptor expression, human PDAC cell lines; assay type: cell-based; conditions: human PDAC cell lines (MiaPaca2 and Panc1), compared to control
Chrm1 [6] = assay: qRT-PCR of muscarinic receptor expression, murine PDAC cell lines; assay type: cell-based, mouse; conditions: murine PDAC cell lines (Panc02 and K8282), compared to control

| Compound | overall survival (KPC mice; GEM with or without bethanechol) | overall survival (KPC mice; tumors 3-5 mm at enrollment, GEM biweekly i.p. with or without bethanechol) | number of spheres [1] | size of spheres [1] | sphere formation and growth of Kras mutant spheres [1] | phosphorylation of EGFR, BRAF, ERK1/2, PI3K and AKT kinases (western blot) (human Panc1 cells) | ratios of p-EGFR/EGFR, p-BRAF/BRAF, p-ERK/ERK, p-PI3K/PI3K and p-AKT/AKT (densitometry) (human Panc1 cells) | phosphorylation of EGFR, BRAF, ERK1/2, PI3K and AKT kinases (western blot) (murine K8282 cells) | ratios of p-EGFR/EGFR, p-BRAF/BRAF, p-ERK/ERK, p-PI3K/PI3K and p-AKT/AKT (densitometry) (murine K8282 cells) | proliferation (MTT assay) [2] | increase in proliferation due to muscarinic antagonists ([2]; agonist added to antagonist) | proliferation (MTT assay) [3] | increase in proliferation due to muscarinic antagonists ([3]; agonist added to antagonist) | sphere forming capacity / growth of WT spheres [4] | Chrm1 expression (CHRM1 [5]) | Chrm1 expression (Chrm1 [6]) |
| --- | --- | --- | --- | --- | --- | --- | --- | --- | --- | --- | --- | --- | --- | --- | --- | --- |
| Nc1ccn([C@@H]2O[C@H](CO)[C@@H](O)C2(F)F)c(=O)n1 [GEM] | 29 days | 29 days |  |  |  |  |  |  |  |  |  |  |  |  |  |  |
| C[N+](C)(C)CC#CCOC(=O)Nc1cccc(Cl)c1.[Cl-] [McN-34A] |  |  | significantly fewer | smaller | suppressed | significantly less phosphorylated | significantly decreased | significantly less phosphorylated | significantly decreased | suppressed | blocked; also recorded: inhibited to some extent | suppressed | blocked; also recorded: inhibited to some extent | increased |  |  |
| CN1CCN(CC(=O)N2c3ccccc3C(=O)Nc3cccnc32)CC1 [pirenzepine] |  |  | significantly more | larger | stimulated | significantly more phosphorylated | increased | significantly more phosphorylated | increased | increased; also recorded: stimulated |  | increased; also recorded: stimulated |  | significantly prevents |  |  |
| CN1[C@@H]2C[C@@H](OC(=O)[C@H](CO)c3ccccc3)C[C@H]1[C@@H]1O[C@@H]12 [scopolamine] |  |  | significantly more; also recorded: increased | larger | increase | significantly more phosphorylated |  | significantly more phosphorylated |  | increased |  | increased; also recorded: stimulated |  |  | increased; also recorded: higher | increased; also recorded: higher |
